Experimental data from patent US5977104A, “Use of NK-1 receptor antagonists for treating bipolar disorders” (Merck Sharp & Dohme Ltd., priority 1996, dated 1999).
Read-outs that look alike come from different tables or passages of the source.

Legend:
[1] = test system: foot tapping in gerbils induced by NK-1 receptor agonist GR73632; experiment: Gerbil foot-tapping (Assay 2), induced by central infusion of NK-1 receptor agonist GR73632; assay type: in vivo, Mongolian gerbil; settings: Meriones unguiculatus, iv
Description: CNS-penetrant NK-1 receptor antagonists for use in the present invention can be identified by their ability to inhibit foot tapping in gerbils induced by anxiogenic agents (such as pentagastrin) or central infusion of NK-1 receptor agonists such as GR73632, or caused by aversive stimulation such as foot shock or single housing, based on the method of Rupniak & Williams, Eur. J. Pharmacol., 1994, 265, 179.
Male or female Mongolian gerbils (35-70 g) are anaesthetised by inhalation of an isoflurane/oxygen mixture to permit exposure of the jugular vein in order to permit administration of test compounds or vehicle in an injection volume of 5ml/kg i.v. Alternatively, test compounds may be administered orally or by subcutaneous or intraperitoneal routes. A skin incision is then made in the midline of the scalp to expose the skull. […]

[2] = test system: cisplatin-induced emesis in ferrets; experiment: Ferret emesis (Assay 3), cisplatin-induced; assay type: in vivo; settings: Mustela putorius, po, 4 h; p.o., cisplatin 10 mg/kg i.v. at 60 minutes following dosing; read-out: ferret emesis: ID90
Protocol: Ten minutes later they are fed with approximately 100 g of tinned cat food. At 60 minutes following oral dosing, cisplatin (10 mg/kg) is given i.v. via a jugular vein catheter inserted under a brief period of halothane anaesthesia. The catheter is then removed, the jugular vein ligated and the skin incision closed. The ferrets recover rapidly from the anaesthetic and are mobile within 10-20 minutes. The animals are observed continuously during recovery from the anaesthetic and for 4 hours following the cisplatin injection, after which time the animals are killed humanely. The numbers of retches and vomits occurring during the 4 hours after cisplatin administration are recorded by trained observers.

[3] = test system: separation-induced vocalisations by guinea-pig pups; experiment: Separation-induced vocalisation in guinea-pig pups (Assay 4); assay type: in vivo; settings: Cavia porcellus, po, 4 hr. pretreatment; read-out: guinea-pig vocalisation (4 hr. pretreatment): ID50
Protocol: Male and female guinea-pigs pups are housed in family groups with their mothers and littermates throughout the study. Experiments are commenced after weaning when the pups are 2 weeks old. Before entering an experiment, the pups are screened to ensure that a vigorous vocalisation response is reproducibly elicited following maternal separation. The pups are placed individually in an observation cage (55 cm×39 cm×19 cm) in a room physically isolated from the home cage for 15 minutes and the duration of vocalisation during this baseline period is recorded. […] On test days each pup receives an oral dose or an s.c. or i.p. injection of test compound or vehicle and is then immediately returned to the home cage with its mother and siblings for 30 to 60 minutes (or for up to 4 hours following an oral dose, dependent upon the oral pharmacokinetics of the test compound) before social isolation for 15 minutes as described above. […] Between 6 and 8 animals receive each test compound at each dose tested.

SMILES: OC[C@@H](O[C@H]1OCCN(Cc2nc[nH]n2)[C@H]1c1ccc(F)cc1)c1cc(C(F)(F)F)cc(C(F)(F)F)c1 [2-(R)-(1-(S)-(3,5-bis(trifluoromethyl)phenyl)-2-hydroxyethoxy)-3-(S) -(4-fluorophenyl)-4-(1,2,4-triazol-3-yl)methylmorpholine]
- ED50 ([1]; 5 min, i.v., immediately prior to GR73632 challenge (5 mins.), read-out: gerbil foot-tapping (5 mins.): ID50): 0.38 mg/kg
- ED50 ([1]; 24 hours prior to central NK1 agonist challenge, read-out: gerbil foot-tapping (24 hrs.): ID50): 2.2 mg/kg
- ED90 [2]: 1 mg/kg
- ED50 [3]: 0.91 mg/kg
